Laboratory results: publication PMC11726677, “Eradication of Therapy-Resistant Cancer Stem Cells by Novel Telmisartan Derivatives” (Journal of Medicinal Chemistry, 2024)
Where “and” joins values, the source holds several entries; their conditions need not be identical. Identical values can stand only once.

Legend:
K562-R cells [1] = assay: Metabolic activity of K562-R cells, compounds alone (modified MTT assay); format: cell-based, human; conditions: 72 h; for viability at 10 µM: Homo sapiens, K-562R, read-out: metabolic activity of K562-R cells, compound alone; for metabolic activity of K562-R cells, compound alone: 10 μM, without imatinib, vehicle control = 100%
Method: (§1) The potential reduction in cell viability was determined using the modified MTT assay.
First, the compounds (10 μM) were applied alone to evaluate their effects per se.
(§2) COS-7 (2 × 10^3 cells per well), IGROV-1 SP (2.5 × 10^3 cells per well), A2780 V SP (1.5 × 10^3 cells per well), PC3-DR (4 × 10^3 cells per well), and DU145-DR (3 × 10^3 cells per well) cells were seeded in 96-well plates in triplicates and after 24 h, the compounds were added at the respective concentrations. K562-R and K562 cells (2 × 10^4 cells per well), were treated with the compounds 2 h after seeding. […] A modified MTT colorimetric assay (EZ4U kit, Biomedica) was used to determine the metabolic activity of the tested cells, according to the manufacturer’s instructions. Absorbance was measured and the optical density of the respective FCS-containing medium and of the substrate was subtracted to exclude nonspecific staining. Metabolic activity in the absence of the compounds (CTR, DMSO) was set to 100% as reference.

K562-R cells [2] = assay: Chemosensitizing: metabolic activity of K562-R cells cotreated with imatinib (modified MTT assay); format: cell-based, human; conditions: 72 h; for EC50 / chemosensitizing effect, concentration-dependent analysis: K562-R, + imatinib 1 μM; for EC50: read-out: SC50 (drug concentration eliciting 50% of the maximum sensitizing effect); for chemosensitizing effect, concentration-dependent analysis: 0.5–8 μM (transporter inhibitors 10 to 0.5 μM)
Method: as §1
conc. 10 to 0.5 μM) over 72 h (Figure 3D).
as §2

ABCB1 [3] = assay: Jess Simple Western immunoassay of ABCB1 expression in K562-R cells; format: cell-based, human; conditions: 4 μM, 72 h
Method: (§3) Protein extracts were prepared as previously described.[44] Protein expression was determined using the capillary-based Jess Simple Western detection system (ProteinSimple, BioTechne) according to the manufacturer’s instructions at default settings. […] Horseradish peroxidase (HRP)-conjugated secondary antirabbit antibody, which was included in the Jess Detection Module kit, was used. Data analysis was conducted using Compass for Simple Western 4.0 software (ProteinSimple, BioTechne).

STAT5 = assay: Jess Simple Western immunoassay of STAT5/pSTAT5 in K562-R cells; format: cell-based, human
Method: In the next step, the effects of the compounds (4 μM) on STAT5 in K562-R cells were examined.
as §3

[4] = biological target: ABCB1 transporter in K562-R cells (Homo sapiens, UniProt P08183); assay: Side population (SP) analysis, DCV staining, flow cytometry; conditions: 10 μM
ABCB1 transporter in K562-R cells, sequence (P08183 whole entry): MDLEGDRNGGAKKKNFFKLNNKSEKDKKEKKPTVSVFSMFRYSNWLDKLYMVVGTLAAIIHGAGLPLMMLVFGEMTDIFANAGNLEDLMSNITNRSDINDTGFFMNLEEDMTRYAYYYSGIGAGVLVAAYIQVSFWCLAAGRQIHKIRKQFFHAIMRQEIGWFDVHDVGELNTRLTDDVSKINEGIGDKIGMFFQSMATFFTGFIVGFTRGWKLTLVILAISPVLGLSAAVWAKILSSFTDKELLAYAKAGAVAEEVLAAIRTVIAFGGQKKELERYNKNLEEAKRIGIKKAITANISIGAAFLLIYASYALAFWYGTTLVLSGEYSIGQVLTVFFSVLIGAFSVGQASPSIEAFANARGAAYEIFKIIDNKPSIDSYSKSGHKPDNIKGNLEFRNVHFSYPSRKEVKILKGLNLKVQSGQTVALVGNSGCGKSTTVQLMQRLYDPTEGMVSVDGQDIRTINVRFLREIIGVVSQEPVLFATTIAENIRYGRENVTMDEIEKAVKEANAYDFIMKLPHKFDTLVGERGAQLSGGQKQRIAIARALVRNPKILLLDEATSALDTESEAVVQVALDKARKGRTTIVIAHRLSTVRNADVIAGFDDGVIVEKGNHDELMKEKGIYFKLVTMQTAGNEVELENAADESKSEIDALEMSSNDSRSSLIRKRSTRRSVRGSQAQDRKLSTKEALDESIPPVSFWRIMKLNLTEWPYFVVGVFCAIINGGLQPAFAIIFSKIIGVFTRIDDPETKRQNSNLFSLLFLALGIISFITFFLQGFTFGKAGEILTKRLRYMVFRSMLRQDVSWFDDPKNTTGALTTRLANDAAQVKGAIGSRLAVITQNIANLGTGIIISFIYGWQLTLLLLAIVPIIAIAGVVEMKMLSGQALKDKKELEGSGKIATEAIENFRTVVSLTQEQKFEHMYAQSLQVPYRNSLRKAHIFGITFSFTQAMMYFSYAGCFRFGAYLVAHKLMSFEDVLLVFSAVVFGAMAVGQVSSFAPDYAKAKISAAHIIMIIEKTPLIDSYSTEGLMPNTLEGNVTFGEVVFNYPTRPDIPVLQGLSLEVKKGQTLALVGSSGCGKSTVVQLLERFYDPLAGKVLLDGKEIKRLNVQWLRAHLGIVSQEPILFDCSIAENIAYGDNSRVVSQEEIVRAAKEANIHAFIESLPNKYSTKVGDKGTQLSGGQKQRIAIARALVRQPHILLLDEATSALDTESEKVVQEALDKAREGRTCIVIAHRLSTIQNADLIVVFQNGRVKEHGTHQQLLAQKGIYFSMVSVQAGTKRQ
Method: SP analyses were performed as previously described[45] on a LSRFortessa flow cytometer (BD Biosciences, Vienna, Austria). Briefly, 1 × 10^6 cells/mL were stained with 10 μM Vybrant DyeCycleTM Violet (DCV; Molecular Probes, Eugene, OR) in the presence or absence of the investigated compounds for 90 min at 37 °C. […] Subsequently, the cells were washed and immediately analyzed using flow cytometry. The FlowJo 9.6 software was used for data analyses (Tree Star Software, Ashland, CA).

K562 cells = assay: Metabolic activity of TKI-sensitive K562 cells (MTT assay); format: cell-based, human; conditions: 10 μM, 72 h, alone
Method: Selectivity for therapy-resistant K562-R cells can be assessed by comparing the results with TKI-sensitive K562 cells.
as §2

PC3-DR cells = assay: Chemosensitizing to docetaxel: metabolic activity of PC3-DR cells (MTT); format: cell-based, human; conditions: DTX 12.5 nM, 72 h, compared to solvent control
Method: (§4) The chemosensitizing efficacy was investigated in the ovarian and prostate cancer cell lines using the above-described metabolic activity assay. Paclitaxel (PTX) served as a reference (CTR) in A2780 V SP and IGROV-1 SP cells and docetaxel (DTX) in PC3-DR and D145-DR cells.
as §2

DU145-DR cells = assay: Chemosensitizing to docetaxel: metabolic activity of DU145-DR cells (MTT); format: cell-based, human; conditions: DTX 12.5 nM, 72 h, compared to solvent control
Method: as §4, §2

[5] = test system: human CML K562-R xenograft; assay: Efficacy in human CML K562-R xenograft model; format: in vivo, female NOD/SCID mice; parameters: % T/C (treatment/control) / % TGI (tumor growth inhibition): concentration or dose not given beside the values; conditions: for % TGI (tumor growth inhibition): vs vehicle control
Method: The animals were checked daily for humane end points. Body weight was measured and recorded daily after dosing.
The % T/C value, defined as the ratio of the mean tumor volume for the treated versus control group, was calculated as % T/C = (Tn/Cn) × 100%; whereas Tn: denotes mean tumor volume of the treated group on day n, and Cn: denotes mean tumor volume of the control group on day n. The optimal value is the minimal % T/C ratio, which reflects the maximal tumor growth inhibition achieved.
TGI (Tumor growth inhibition) was calculated by the following formula [drawing 1] [drawing 2]
Whereas: Tn: denotes the mean tumor volume of the treated group on day n; T1: denotes the mean tumor volume of the treated group on day 1; Cn: denotes the mean tumor volume of the vehicle control group on day n; and C1: denotes the mean tumor volume of the vehicle control group at day 1.

K562-R cells [6] = assay: Metabolic activity of K562-R cells, compounds alone (modified MTT assay); format: cell-based, human; conditions: imatinib 1 μM, 72 h; compared to the 100% solvent control
[7] = Body weight / tolerability in the K562-R xenograft study; conditions: 7c 10 mg/kg, imatinib 50 mg/kg, PO QD × 30 days
A2780 V SP cells = assay: Chemosensitizing to paclitaxel: metabolic activity of A2780 V SP cells (MTT); format: cell-based, human
Method: as §4, §2

IGROV-1 SP cells = assay: Chemosensitizing to paclitaxel: metabolic activity of IGROV-1 SP cells (MTT); format: cell-based, human; conditions: PTX 10 nM, 72 h, compared to solvent control
Method: as §4, §2

ABCB1 [8] = test system: ABCB1; parameters: method as in Weiss et al. 38; conditions: ref Weiss et al. 38; cited from earlier work

CCCc1nc2ccccc2n1Cc1ccccc1C(=O)OC [1b, Methyl 2-((2-propyl-1H-benzo[d]imidazole-1-yl)methyl)benzoate]
viability at 10 µM (K562-R cells [1]): < 70% | metabolic activity of K562-R cells, combination with imatinib (K562-R cells [2]; compound 8 μM + imatinib 1 μM): 44–57% | metabolic activity of K562-R cells, combination with imatinib (K562-R cells [2]; compound 10 μM + imatinib 1 μM): 34–58% | ABCB1 protein expression (ABCB1 [3]): none of the compounds abrogated the ABCB1 protein expression | phosphorylation of STAT5 (STAT5; 4 μM + imatinib 1 μM, 6 h): hardly triggered any change in the expression of pSTAT5 | phosphorylation of STAT5 (STAT5; 4 μM alone, 72 h): prevented the activation of STAT5 | effect on SP phenotype / ABCB1 activity [4]: had no significant impact on the SP

CCCc1nc2ccccc2n1Cc1ccccc1C(N)=O [1c, 2-((2-Propyl-1H-benzo[d]imidazole-1-yl)methyl)benzamide]
viability at 10 µM (K562-R cells [1]): 75 to 80% | metabolic activity of K562-R cells, combination with imatinib (K562-R cells [2]; compound 10 μM + imatinib 1 μM): could not be increased

CCCc1nc2ccccc2n1Cc1cccc(C(=O)OC)c1 [2b, Methyl 3-((2-propyl-1H-benzo[d]imidazole-1-yl)methyl)benzoate]
viability at 10 µM (K562-R cells [1]): < 70% | metabolic activity of K562-R cells, combination with imatinib (K562-R cells [2]; compound 8 μM + imatinib 1 μM): 44–57% | metabolic activity of K562-R cells, combination with imatinib (K562-R cells [2]; compound 10 μM + imatinib 1 μM): 34–58% | effect on SP phenotype / ABCB1 activity [4]: had no significant impact on the SP

CCCc1nc2ccccc2n1Cc1cccc(C(N)=O)c1 [2c, 3-((2-Propyl-1H-benzo[d]imidazole-1-yl)methyl)benzamide]
metabolic activity of K562-R cells, combination with imatinib (K562-R cells [2]; compound 10 μM + imatinib 1 μM): could not be increased

CCCc1nc2ccccc2n1Cc1ccc(C(=O)OC)cc1 [3b, Methyl 4-((2-propyl-1H-benzo[d]imidazole-1-yl)methyl)benzoate]
metabolic activity of K562-R cells, combination with imatinib (K562-R cells [2]; compound 8 μM + imatinib 1 μM): 44–57% | metabolic activity of K562-R cells, combination with imatinib (K562-R cells [2]; compound 10 μM + imatinib 1 μM): 34–58% | effect on SP phenotype / ABCB1 activity [4]: had no significant impact on the SP

CCCc1nc2ccccc2n1Cc1ccc(C(N)=O)cc1 [3c, 4-((2-Propyl-1H-benzo[d]imidazole-1-yl)methyl)benzamide]
metabolic activity of K562-R cells, combination with imatinib (K562-R cells [2]; compound 10 μM + imatinib 1 μM): could not be increased

CCCc1nc2ccccc2n1Cc1ccc(-c2ccccc2C(=O)OC)cc1 [4b, Methyl 4′-((2-propyl-1H-benzo[d]imidazole-1-yl)methyl)-[1,1′-biphenyl]-2-carboxylate]
viability at 10 µM (K562-R cells [1]): < 70% | EC50 (K562-R cells [2]): 1240 nM | metabolic activity of K562-R cells, combination with imatinib (K562-R cells [2]; compound 10 μM + imatinib 1 μM): 8–24% | metabolic activity of K562 cells (K562 cells): ≥ 65% | ABCB1 protein expression (ABCB1 [3]): none of the compounds abrogated the ABCB1 protein expression | phosphorylation of STAT5 (STAT5; 4 μM + imatinib 1 μM, 6 h): hardly triggered any change in the expression of pSTAT5 | phosphorylation of STAT5 (STAT5; 4 μM alone, 72 h): prevented the activation of STAT5 | effect on SP phenotype / ABCB1 activity [4]: efficiently reduced the ABCB1 activity | relation of SP and NSP [4]: about 50%

CCCc1nc2ccccc2n1Cc1ccc(-c2cccc(C(=O)OC)c2)cc1 [5b, Methyl 4′-((2-propyl-1H-benzo[d]imidazole-1-yl)methyl)-[1,1′-biphenyl]-3-carboxylate]
viability at 10 µM (K562-R cells [1]): < 70% | metabolic activity of K562-R cells, combination with imatinib (K562-R cells [2]; compound 10 μM + imatinib 1 μM): 34–58% | metabolic activity of K562 cells (K562 cells): ≥ 65%

CCCc1nc2ccccc2n1Cc1ccc(-c2ccc(C(=O)OC)cc2)cc1 [6b, Methyl 4′-((2-propyl-1H-benzo[d]imidazole-1-yl)methyl)-[1,1′-biphenyl]-4-carboxylate]
viability at 10 µM (K562-R cells [1]): 75 to 80% | EC50 (K562-R cells [2]): 1180 nM | metabolic activity of K562-R cells, combination with imatinib (K562-R cells [2]; compound 10 μM + imatinib 1 μM): 8–24% | metabolic activity of K562 cells (K562 cells): ≥ 65% | ABCB1 protein expression (ABCB1 [3]): none of the compounds abrogated the ABCB1 protein expression | phosphorylation of STAT5 (STAT5; 4 μM + imatinib 1 μM, 6 h): marked repression of the STAT5 phosphorylation | effect on SP phenotype / ABCB1 activity [4]: efficiently reduced the ABCB1 activity | relation of SP and NSP [4]: about 50%

CC(=O)O[C@@]12CO[C@@H]1C[C@H](O)[C@@]1(C)C(=O)[C@H](O)C3=C(C)[C@@H](OC(=O)[C@H](O)[C@@H](NC(=O)OC(C)(C)C)c4ccccc4)C[C@@](O)([C@@H](OC(=O)c4ccccc4)[C@H]21)C3(C)C [DTX, docetaxel, reference compound]
metabolic activity of treated cells, DTX alone (PC3-DR cells): > 80% | metabolic activity of treated cells, DTX alone (DU145-DR cells): > 80%

Cc1ccc(NC(=O)c2ccc(CN3CCN(C)CC3)cc2)cc1Nc1nccc(-c2cccnc2)n1 [Imatinib, imatinib, reference compound]
% TGI (tumor growth inhibition) ([5]; Day 5): 76% | % TGI (tumor growth inhibition) ([5]; Day 8): 54% | % TGI (tumor growth inhibition) ([5]; Day 12): 50% | % TGI (tumor growth inhibition) ([5]; Day 15): 66% | % TGI (tumor growth inhibition) ([5]; Day 19): 57% | % TGI (tumor growth inhibition) ([5]; Day 22): 57% | % TGI (tumor growth inhibition) ([5]; Day 26): 56% | % TGI (tumor growth inhibition) ([5]; Day 29): 55% | % TGI (tumor growth inhibition) ([5]; Day 33): 59% | Tumor Weight, individual animal ([5]; harvested on day 33, animals No. 1–7): 4.442 g and 0.194 g and 0.080 g and 0.082 g and 0.351 g and 3.076 g and 0.081 g | Tumor Weight, group mean ([5]; harvested on day 33, n = 7): 1.200 g | metabolic activity of K562-R cells, imatinib alone (K562-R cells [6]): 73% | tolerability [7]: well tolerated

CC(=O)O[C@H]1C(=O)[C@@]2(C)[C@H]([C@H](OC(=O)c3ccccc3)[C@]3(O)C[C@H](OC(=O)[C@H](O)[C@@H](NC(=O)c4ccccc4)c4ccccc4)C(C)=C1C3(C)C)[C@]1(OC(C)=O)CO[C@@H]1C[C@@H]2O [PTX, paclitaxel]
IC50 (A2780 V SP cells; Homo sapiens, PTX 0–300 nM, read-out: IC50 (PTX), PTX alone): 168 nM | metabolic activity of treated cells, PTX alone (A2780 V SP cells; PTX 10 nM, 72 h, compared to solvent control): > 80% | metabolic activity of treated cells, PTX alone (IGROV-1 SP cells): > 80%

COc1cc2c(cc1OC)CN(CCc1ccc(NC(=O)c3cccc4c(=O)c5cccc(OC)c5[nH]c34)cc1)CC2 [elacridar, reference compound]
metabolic activity of K562-R cells, compound alone (K562-R cells [1]): did not affect the viability | chemosensitizing effect, concentration-dependent analysis (K562-R cells [2]): comparable to telmi-ester (7b) | metabolic activity of K562 cells (K562 cells): did not affect the viability | ABCB1 protein expression (ABCB1 [3]): none of the compounds abrogated the ABCB1 protein expression | phosphorylation of STAT5 (STAT5; 4 μM + imatinib 1 μM, 6 h): hardly triggered any change in the expression of pSTAT5 | phosphorylation of STAT5 (STAT5; 4 μM alone, 72 h): did not influence the phosphorylation of STAT5

CCCCC1=NC2(CCCC2)C(=O)N1Cc1ccc(-c2ccccc2-c2nnn[nH]2)cc1 [irbesartan]
inhibition of ABCB1 (ABCB1 [8]): only slightly

C/C=C/C[C@@H](C)C(=O)[C@H]1C(=O)N[C@@H](C(C)C)C(=O)N(C)CC(=O)N(C)[C@@H](CC(C)C)C(=O)N[C@@H](C(C)C)C(=O)N(C)[C@@H](CC(C)C)C(=O)N[C@@H](C)C(=O)N[C@H](C)C(=O)N(C)[C@@H](CC(C)C)C(=O)N(C)[C@@H](CC(C)C)C(=O)N(C)[C@@H](C(C)C)C(=O)N1C [valspodar, reference compound]
metabolic activity of K562-R cells, compound alone (K562-R cells [1]): did not affect the viability | chemosensitizing effect, concentration-dependent analysis (K562-R cells [2]): sensitized the cells similarly to the derivatives 4b, 5c, 6b, 6c | metabolic activity of K562 cells (K562 cells): did not affect the viability
